Results: the supplement of paper PMC8671470

Columns and labels:
Conditions in all cases: 72 h
HL-60 [1] = assay: cell viability (% survival relative to DMSO control); higher = less cytotoxic
In short: (§1)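 HL-60 cells in RPMI 1640 with 10% FBS were rescreened against the full library on 384-well plates at five tenfold concentrations, 1–10,000 nM, in duplicate. Each screen was run with DMSO or 100 nM of one of three metabolic inhibitors, for 72 h at 37 °C, 5% CO2. Viability was read by CellTiter-Glo and normalised to DMSO and 10 μM proteasome-inhibitor wells. Where given, area under the curve came from four-parameter log-logistic fits (drc, PharmacoGx).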

[2] = tested on: myeloid leukemia patient primary cells Pat.12; assay: area under dose-response curve (viability, 1 nM-10 uM) (fraction (0-1)); higher = more sensitive
Description: (§2)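 AUC (0–1, higher = more sensitive) of the 5-point dose–response (1 nM–10 µM, 72 h, CellTiter-Glo) in primary AML/CML patient mononuclear cells. 0.030103 is the floor for inactive compounds.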

[3] = tested on: myeloid leukemia patient primary cells Pat.4; assay: as above
Description: as §2

[4] = tested on: myeloid leukemia patient primary cells Pat.3; assay: as above
Description: as §2

[5] = tested on: myeloid leukemia patient primary cells Pat.1; assay: as above
Description: as §2

[6] = tested on: myeloid leukemia patient primary cells Pat.13; assay: as above
Description: as §2

[7] = tested on: myeloid leukemia patient primary cells Pat.2; assay: as above
Description: as §2

[8] = tested on: myeloid leukemia patient primary cells Pat.15; assay: as above
Description: as §2

[9] = tested on: myeloid leukemia patient primary cells Pat.14; assay: as above
Description: as §2

[10] = tested on: myeloid leukemia patient primary cells Pat.8; assay: as above
Description: as §2

[11] = tested on: myeloid leukemia patient primary cells Pat.7; assay: as above
Description: as §2

[12] = tested on: myeloid leukemia patient primary cells Pat.11; assay: as above
Description: as §2

[13] = tested on: myeloid leukemia patient primary cells Pat.10; assay: as above
Description: as §2

[14] = tested on: myeloid leukemia patient primary cells Pat.6; assay: as above
Description: as §2

[15] = tested on: myeloid leukemia patient primary cells Pat.5; assay: as above
Description: as §2

[16] = tested on: myeloid leukemia patient primary cells Pat.9; assay: as above
Description: as §2

HL-60 [17] = assay: area under dose-response curve (viability, 1 nM-10 uM) (fraction (0-1)); higher = more sensitive
In short: as §1

[18] = tested on: myeloid leukemia patient primary cells Pat.2; assay: cell viability (% survival relative to DMSO control); higher = less cytotoxic
In short: (§3)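 Mononuclear cells from patients with AML or CML were thawed, purified on Ficoll and placed in RPMI 1640 with 10% FBS at 10,000 cells/well on 384-well plates. The plates came pre-printed with 70 compounds at five tenfold concentrations spanning 1–10,000 nM, in duplicate, and cells were exposed for 72 h. CellTiter-Glo gave viability, scaled between DMSO wells and wells with 10 μM proteasome inhibitor. Where reported, area under the curve was obtained from log-logistic fits with four parameters using the drc and PharmacoGx R packages.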

[19] = tested on: myeloid leukemia patient primary cells Pat.15; assay: as above
In short: as §3

[20] = tested on: myeloid leukemia patient primary cells Pat.7; assay: as above
In short: as §3

[21] = tested on: myeloid leukemia patient primary cells Pat.11; assay: as above
In short: as §3

[22] = tested on: myeloid leukemia patient primary cells Pat.10; assay: as above
In short: as §3

[23] = tested on: myeloid leukemia patient primary cells Pat.6; assay: as above
In short: as §3

CO[C@H]1C[C@@H]2CC[C@@H](C)[C@@](O)(O2)C(=O)C(=O)N2CCCC[C@H]2C(=O)O[C@H]([C@H](C)C[C@@H]2CC[C@@H](OCCO)[C@H](OC)C2)CC(=O)[C@H](C)/C=C(\C)[C@@H](O)[C@@H](OC)C(=O)[C@H](C)C[C@H](C)/C=C/C=C/C=C/1C [Everolimus]
cell viability [%], HL-60 [1]
Conditions	0.001 µM	0.01 µM	0.1 µM	1 µM	10 µM
co-treatment: AZD3965 100 nM	100	95.63	97.03	93.2	83.2
co-treatment: DMSO vehicle	84.2	90.5	93.85	98.3	93.8
co-treatment: GSK2194069 100 nM	85.1	88.9	97.9	110.7	88.4
co-treatment: pictilisib 100 nM	78.7	88.7	87.9	89.2	72.1

Conditions	area under dose-response curve
[2]	< 0.0301
[3]	0.413
[4]	0.746
[5]	0.122
[6]	0.0367
[7]	0.0353
[8]	0.625
[9]	0.177
[10]	< 0.0301
[11]	0.139
[12]	< 0.0301
[13]	0.604
[14]	0.0682
[15]	0.808
[16]	0.319

Conditions	area under dose-response curve, co-treatment: AZD3965 100 nM	area under dose-response curve, co-treatment: DMSO vehicle	area under dose-response curve, co-treatment: GSK2194069 100 nM	area under dose-response curve, co-treatment: pictilisib 100 nM	cell viability, 1 nM [%]	cell viability, 10 nM [%]	cell viability, 100 nM [%]	cell viability, 1000 nM [%]	cell viability, 10000 nM [%]
HL-60 [17]	< 0.0301	< 0.0301	< 0.0301	< 0.0301	–	–	–	–	–
[18]	–	–	–	–	82.6	83.8	74.4	82.3	68.2
[19]	–	–	–	–	62.3	44.6	36.8	40	22.9
[20]	–	–	–	–	85	68.8	99.3	79.1	2.34
[21]	–	–	–	–	90.6	83.8	89.2	87.3	70.2
[22]	–	–	–	–	34.9	31.3	34.9	41.7	11.8
[23]	–	–	–	–	96.2	92.4	99.1	87.4	53.5
